According to article PMC4359373, “Mechanistic insight into the conserved allosteric regulation of periplasmic proteolysis by the signaling molecule cyclic-di-GMP” (eLife, 2014):
Where “and” joins values, the source holds several entries; their conditions need not be identical. Identical values can stand only once.

Legend:
[1] = biological target: T1, LapD (LapD-sfGFP, full-length), with LapG (Pseudomonas fluorescens, UniProt Q3KK31); test: UV cross-linking of LapG-V205pAzF to LapD-sfGFP, in-gel fluorescence; assay type: binding; settings: 2 μM LapD-sfGFP, 1 μM LapG, 2.5 mM CaCl2, pH 7.5, room temperature; detergent-solubilized; concentration range of sharp transition, not an EC50
T1 construct: full-length transmembrane LapD with C-terminal TEV site-sfGFP-His6, E. coli, detergent-solubilized (LMNG/CHAPS); LapG without signal peptide carrying para-azidophenylalanine at V205, sfGFP cut off; with Periplasmic cysteine protease LapG
T1 sequence (Q3KK31 1-648): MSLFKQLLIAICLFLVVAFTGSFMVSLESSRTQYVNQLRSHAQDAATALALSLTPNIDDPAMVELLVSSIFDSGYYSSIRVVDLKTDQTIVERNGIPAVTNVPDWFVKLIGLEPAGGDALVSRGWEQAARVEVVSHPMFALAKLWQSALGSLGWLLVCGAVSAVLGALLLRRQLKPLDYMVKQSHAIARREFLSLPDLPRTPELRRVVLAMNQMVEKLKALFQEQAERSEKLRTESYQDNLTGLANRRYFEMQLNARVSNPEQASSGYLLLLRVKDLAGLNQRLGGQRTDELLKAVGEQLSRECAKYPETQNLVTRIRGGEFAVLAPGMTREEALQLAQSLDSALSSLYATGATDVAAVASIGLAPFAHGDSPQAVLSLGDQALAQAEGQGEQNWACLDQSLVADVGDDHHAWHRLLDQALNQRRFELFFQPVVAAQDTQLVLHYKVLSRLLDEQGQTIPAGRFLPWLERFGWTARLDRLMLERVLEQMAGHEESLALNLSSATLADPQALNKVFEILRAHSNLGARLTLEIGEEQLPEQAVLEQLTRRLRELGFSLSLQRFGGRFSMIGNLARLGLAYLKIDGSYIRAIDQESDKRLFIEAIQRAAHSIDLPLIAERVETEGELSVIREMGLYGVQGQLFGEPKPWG
T1 sequence (Q3KK32 50-251 partner): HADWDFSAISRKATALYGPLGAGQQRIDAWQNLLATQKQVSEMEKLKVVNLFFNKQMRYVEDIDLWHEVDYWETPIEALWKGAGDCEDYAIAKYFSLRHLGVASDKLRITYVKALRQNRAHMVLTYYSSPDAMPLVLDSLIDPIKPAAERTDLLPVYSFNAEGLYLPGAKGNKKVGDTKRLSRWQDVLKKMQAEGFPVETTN

[2] = biological target: full-length P. fluorescens LapD fused C-terminally to superfolder GFP (LapD-sfGFP), wild type (P. fluorescens) (UniProt Q3KK31); test: cross-linking

Compound	switch in LapG cross-linking [1]	other (LapG:LapD molar ratio) [2]
Nc1nc2c(ncn2[C@@H]2O[C@@H]3COP(=O)(O)O[C@H]4[C@@H](O)[C@H](n5cnc6c(=O)[nH]c(N)nc65)O[C@@H]4COP(=O)(O)O[C@H]3[C@H]2O)c(=O)[nH]1 [c-di-GMP]	0.75 to 1 µM	–
non-fluorescent P. fluorescens LapG with pAzF at Y206 (enzyme)	–	0.3 and 0.5
